Measurements taken from PubChem BioAssay AID2060906 (Molecular Pharmacology Branch, DTP, NCI, 2025).

Test system: 485176-168-R4-J1-PDC complex spheroid growth
Test: Anticancer human tumor 485176-168-R4-J1-PDC patient-derived pancreatic adenocarcinoma cell line growth inhibition [RAS]
Settings: for IC50: curve of first compound; for viability, T/C: stronger effect = lower value; active means viability on the fitted dose curve at most 10% of control; inactive means the rest
In short: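 Tumour cells grown as complex spheroids with HUVEC endothelial cells and mesenchymal stem cells, treated with RAS pathway inhibitor combinations. Each agent spans half-log steps from near clinical Cmax, or 10 microM where Cmax is unknown.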

[1] = second compound 0.00316 µM, first compound 0.0316 µM
[2] = second compound 0.00316 µM, first compound 0.1 µM
[3] = second compound 0.01 µM, first compound 0.0316 µM
[4] = second compound 0.01 µM, first compound 0.1 µM
[5] = second compound 0.0316 µM, first compound 0.0316 µM
[6] = second compound 0.0316 µM, first compound 0.1 µM
[7] = second compound 0.1 µM, first compound 0.0316 µM
[8] = second compound 0.1 µM, first compound 0.1 µM
[9] = second compound 0.316 µM, first compound 0.0316 µM
[10] = second compound 0.316 µM, first compound 0.1 µM
[11] = second compound 1 µM, first compound 0.0316 µM
[12] = second compound 1 µM, first compound 0.1 µM
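Further: spheroids exposed to compounds for seven days before readout.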
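Wherever viability, T/C is given: luminescence viability expressed relative to DMSO vehicle wells set as 100%.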

NC1c2ccccc2OC12CCN(c1cnc3c(N4CCCc5ncccc54)n[nH]c3n1)CC2 (stereo unspecified) + CCn1c(-c2cc(N3CCN(C)CC3)cnc2C(C)OC)c2c3cc(ccc31)-c1csc(n1)CC(NC(=O)C1CC1C)C(=O)N1CCCC(N1)C(=O)OCC(C)(C)C2
inactive: viability, T/C (second compound 0.000949 µM, first compound 0.0316 µM) 86.4% | viability, T/C (second compound 0.000949 µM, first compound 0.1 µM) 88.8% | viability, T/C (second compound 0.000949 µM, first compound 0.316 µM) 97.4% | viability, T/C (second compound 0.000949 µM, first compound 1 µM) 85% | viability, T/C (second compound 0.000949 µM, first compound 3.16 µM) 89.2% | viability, T/C (second compound 0.000949 µM, first compound 10 µM) 79.1% | viability, T/C (second compound 0.003 µM, first compound 0.0316 µM) 93.1% | viability, T/C (second compound 0.003 µM, first compound 0.1 µM) 80.9% | viability, T/C (second compound 0.003 µM, first compound 0.316 µM) 76.7% | viability, T/C (second compound 0.003 µM, first compound 1 µM) 97.9% | viability, T/C (second compound 0.003 µM, first compound 3.16 µM) 91.8% | viability, T/C (second compound 0.003 µM, first compound 10 µM) 81.4% | viability, T/C (second compound 0.00949 µM, first compound 0.0316 µM) 81.7% | viability, T/C (second compound 0.00949 µM, first compound 0.1 µM) 93.2% | viability, T/C (second compound 0.00949 µM, first compound 0.316 µM) 76.2% | viability, T/C (second compound 0.00949 µM, first compound 1 µM) 81.1% | viability, T/C (second compound 0.00949 µM, first compound 3.16 µM) 81.9% | viability, T/C (second compound 0.00949 µM, first compound 10 µM) 67.2% | viability, T/C (second compound 0.03 µM, first compound 0.0316 µM) 83% | viability, T/C (second compound 0.03 µM, first compound 0.1 µM) 98% | viability, T/C (second compound 0.03 µM, first compound 0.316 µM) 83.4% | viability, T/C (second compound 0.03 µM, first compound 1 µM) 104% | viability, T/C (second compound 0.03 µM, first compound 3.16 µM) 91% | viability, T/C (second compound 0.03 µM, first compound 10 µM) 79% | viability, T/C (second compound 0.0949 µM, first compound 0.0316 µM) 80.8% | viability, T/C (second compound 0.0949 µM, first compound 0.1 µM) 82% | viability, T/C (second compound 0.0949 µM, first compound 0.316 µM) 76.9% | viability, T/C (second compound 0.0949 µM, first compound 1 µM) 85.2% | viability, T/C (second compound 0.0949 µM, first compound 3.16 µM) 100% | viability, T/C (second compound 0.0949 µM, first compound 10 µM) 76.9% | viability, T/C (second compound 0.3 µM, first compound 0.0316 µM) 87.4% | viability, T/C (second compound 0.3 µM, first compound 0.1 µM) 86.1% | viability, T/C (second compound 0.3 µM, first compound 0.316 µM) 69% | viability, T/C (second compound 0.3 µM, first compound 1 µM) 80.1% | viability, T/C (second compound 0.3 µM, first compound 3.16 µM) 83.1% | viability, T/C (second compound 0.3 µM, first compound 10 µM) 75.1%
> 10 µM: IC50 (second compound 0.000949 µM) | IC50 (second compound 0.003 µM) | IC50 (second compound 0.00949 µM) | IC50 (second compound 0.03 µM) | IC50 (second compound 0.0949 µM) | IC50 (second compound 0.3 µM)

CC(C)n1nc(-c2ccc3oc(N)nc3c2)c2c(N)ncnc21 + C=CC(=O)N1CCN(c2nc(OCC3CCCN3C)nc3c(F)c(-c4nc(N)cc(C)c4C(F)(F)F)c(Cl)cc23)C(C)C1
inactive: viability, T/C (second compound 0.00316 µM, first compound 0.000316 µM) 97.2% | viability, T/C (second compound 0.00316 µM, first compound 0.001 µM) 92.6% | viability, T/C (second compound 0.00316 µM, first compound 0.00316 µM) 84.2% | viability, T/C (second compound 0.00316 µM, first compound 0.01 µM) 66.1% | viability, T/C [1] 39.3% | viability, T/C [2] 27% | viability, T/C (second compound 0.01 µM, first compound 0.000316 µM) 81.8% | viability, T/C (second compound 0.01 µM, first compound 0.001 µM) 88.8% | viability, T/C (second compound 0.01 µM, first compound 0.00316 µM) 91.8% | viability, T/C (second compound 0.01 µM, first compound 0.01 µM) 67.5% | viability, T/C [3] 48.6% | viability, T/C [4] 18.8% | viability, T/C (second compound 0.0316 µM, first compound 0.000316 µM) 89.9% | viability, T/C (second compound 0.0316 µM, first compound 0.001 µM) 90% | viability, T/C (second compound 0.0316 µM, first compound 0.00316 µM) 81.2% | viability, T/C (second compound 0.0316 µM, first compound 0.01 µM) 54.7% | viability, T/C [5] 42.3% | viability, T/C [6] 23.8% | viability, T/C (second compound 0.1 µM, first compound 0.000316 µM) 109% | viability, T/C (second compound 0.1 µM, first compound 0.001 µM) 89.5% | viability, T/C (second compound 0.1 µM, first compound 0.00316 µM) 84.7% | viability, T/C (second compound 0.1 µM, first compound 0.01 µM) 74.5% | viability, T/C [7] 56% | viability, T/C [8] 23.3% | viability, T/C (second compound 0.316 µM, first compound 0.000316 µM) 92% | viability, T/C (second compound 0.316 µM, first compound 0.001 µM) 78.3% | viability, T/C (second compound 0.316 µM, first compound 0.00316 µM) 85.7% | viability, T/C (second compound 0.316 µM, first compound 0.01 µM) 62.6% | viability, T/C [9] 43.6% | viability, T/C [10] 30.1% | viability, T/C (second compound 1 µM, first compound 0.000316 µM) 81.1% | viability, T/C (second compound 1 µM, first compound 0.001 µM) 92.6% | viability, T/C (second compound 1 µM, first compound 0.00316 µM) 82% | viability, T/C (second compound 1 µM, first compound 0.01 µM) 72% | viability, T/C [11] 42.5% | viability, T/C [12] 22.2%
0.0355 µM: IC50 (second compound 0.1 µM)
0.0201 µM: IC50 (second compound 0.00316 µM)
0.0272 µM: IC50 (second compound 0.01 µM)
0.0215 µM: IC50 (second compound 0.316 µM)
0.0236 µM: IC50 (second compound 1 µM)
0.0166 µM: IC50 (second compound 0.0316 µM)

C[C@@H](NC(=O)c1ncnc(N)c1Cl)c1ncc(C(=O)Nc2cc(C(F)(F)F)c(Cl)cn2)s1 + C=CC(=O)N1CCN(c2nc(OCC3CCCN3C)nc3c(F)c(-c4nc(N)cc(C)c4C(F)(F)F)c(Cl)cc23)C(C)C1
inactive: viability, T/C [1] 106% | viability, T/C [2] 104% | viability, T/C (second compound 0.00316 µM, first compound 0.316 µM) 101% | viability, T/C (second compound 0.00316 µM, first compound 1 µM) 86.2% | viability, T/C (second compound 0.00316 µM, first compound 3.16 µM) 84.7% | viability, T/C (second compound 0.00316 µM, first compound 10 µM) 56.9% | viability, T/C [3] 96.1% | viability, T/C [4] 94% | viability, T/C (second compound 0.01 µM, first compound 0.316 µM) 96.5% | viability, T/C (second compound 0.01 µM, first compound 1 µM) 75.8% | viability, T/C (second compound 0.01 µM, first compound 3.16 µM) 81.3% | viability, T/C (second compound 0.01 µM, first compound 10 µM) 60.3% | viability, T/C [5] 111% | viability, T/C [6] 98.4% | viability, T/C (second compound 0.0316 µM, first compound 0.316 µM) 100% | viability, T/C (second compound 0.0316 µM, first compound 1 µM) 81.1% | viability, T/C (second compound 0.0316 µM, first compound 3.16 µM) 75.6% | viability, T/C (second compound 0.0316 µM, first compound 10 µM) 59.3% | viability, T/C [7] 89.5% | viability, T/C [8] 92.3% | viability, T/C (second compound 0.1 µM, first compound 0.316 µM) 101% | viability, T/C (second compound 0.1 µM, first compound 1 µM) 92% | viability, T/C (second compound 0.1 µM, first compound 3.16 µM) 78.5% | viability, T/C (second compound 0.1 µM, first compound 10 µM) 63.4% | viability, T/C [9] 108% | viability, T/C [10] 102% | viability, T/C (second compound 0.316 µM, first compound 0.316 µM) 101% | viability, T/C (second compound 0.316 µM, first compound 1 µM) 79.3% | viability, T/C (second compound 0.316 µM, first compound 3.16 µM) 83.2% | viability, T/C (second compound 0.316 µM, first compound 10 µM) 53% | viability, T/C [11] 100% | viability, T/C [12] 95.7% | viability, T/C (second compound 1 µM, first compound 0.316 µM) 77.3% | viability, T/C (second compound 1 µM, first compound 1 µM) 88.5% | viability, T/C (second compound 1 µM, first compound 3.16 µM) 63.7% | viability, T/C (second compound 1 µM, first compound 10 µM) 52.1%
> 10 µM: IC50 (second compound 0.00316 µM) | IC50 (second compound 0.01 µM) | IC50 (second compound 0.0316 µM) | IC50 (second compound 0.1 µM) | IC50 (second compound 0.316 µM) | IC50 (second compound 1 µM)
